Measurements from patent US7390816B2, “Methods for treating urinary incontinence in patients suffering from memory disorders” (Bridge Pharma, Inc., priority 2005, dated 2008).
Like-named read-outs stand apart in the source and are kept apart here.

Assays:
[1] = tested on: carbachol-induced contractions of urinary bladder smooth muscle strips; assay: Antimuscarinic activity on bladder smooth muscle strips (carbachol-induced contractions); type: cell-based, guinea pigs; conditions: Cavia porcellus, read-out: KB for inhibition of carbachol-induced contractions
Source text: Conclusions: Trospium had slightly higher affinity for human muscarinic receptors than the reference compounds. The therapeutic activity of anti-muscarinic drugs in overactive human bladders are usually considered to be related to affinity for M-2/M-3 receptors, while the side effect xerostomia (dry mouth) is due mainly, but not exclusively, to inhibition of M-1 receptors in salivary glands. • 2. Functional Characterization of Antimuscarinic and Antispasmodic Activities on Bladder Smooth Muscle Strips. Methods: Experiments have now been performed using methods described by Kachur et al, J Pharmacol Exp Ther. 1988, 247: 867-872 and Noronha-Blob et al. J Pharmacol Exp Ther 256: 562-567. Strips of tissue (approximately 10 mm long and 1.5 mm wide) were removed from the urinary bladder of male guinea pigs. The tissues were suspended in an oxygenated buffer of the following composition, in mM: NaCl 133; KCl 4.7; CaCl2 2.5; MgSO4 0.6; NaH2PO4.1.3; NaHCO3 16.3; and glucose 7.7. The smooth muscle strips were maintained at or about 37.5° C. in tissue chambers and allowed to equilibrate with the bathing solution for one hour before proceeding with the experiment. […]

[2] = tested on: memory; assay: Side effects concerning memory functions, T-shaped maze in conscious rats; type: in vivo; conditions: for Effect on memory: naive rats
Method: . Side effects concerning memory functions. Methods:
Conscious rats are used. The animals are placed at the base of a T-shaped maze with a reward placed in one of the arms of the maze. After the animals have learned where the reward is located, said reward is removed and it is investigated how long time it takes in the maze before the rats no longer selected the arm of the maze where the reward had been located. Experiments were also performed in rats that had been pretreated with phenylephrine to increase the permeability of the blood-brain barrier. Control groups of animals were treated with placebo (vehicle only) or with oxybutynin.

[3] = male guinea pig urinary bladder strips

CCN(CC)CC#CCOC(=O)C(O)(c1ccccc1)C1CCCCC1 (centres unmarked) [Oxybutynin]
Kb [1, 3]: 1.5 to 5.5 nM | Effect on memory ([2]; T-shaped maze): memory is impaired

Cc1ccc(O)c([C@H](CCN(C(C)C)C(C)C)c2ccccc2)c1 [Tolterodine]
Kb [1]: 1.5 to 5.5 nM

O=C(OC1CC2CCC(C1)[N+]21CCCC1)C(O)(c1ccccc1)c1ccccc1 (centres unmarked) [Trospium, azoniaspiro (3[…]-benziloyl-oxynortro-pane-8,1′-pyrrolidine) chloride]
Kb [1]: 1.5 to 5.5 nM | Effect on memory ([2]; T-shaped maze): does not influence the memory | Effect on memory after phenylephrine pretreatment ([2]; rats pretreated with phenylephrine to increase blood-brain barrier permeability): did not uncover any impairment of memory | Aggravation of existing memory impairment ([2]; rats with memory disorder induced by oxybutynin, T-shaped maze): no further aggravation of memory impairment

CC(CC(c1ccccc1)c1ccccc1)NC(C)(C)C (centres unmarked) [terodiline]
Kb [1, 3]: 1.5 to 5.5 nM
